Test results from patent US20250163064A1, “QUINAZOLINE COMPOUNDS AND USES THEREOF AS INHIBITORS OF MUTANT KRAS PROTEINS” (AMGEN INC., priority 2022, published 2025).

How the values were obtained:
[1] = target: His-tagged KRAS G12D protein (Homo sapiens (Human), UniProt P01116, G12D); assay: KRAS G12D TR-FRET Assay; format: binding; conditions: biotinylated KRPep-2d, 10 μM GDP
Experimental: Compounds of interest were prepared in a dose-response titration in DMSO, and 80 nL were added via Labcyte Echo to each well of a 384-well plate (Perkin Elmer 6008280). The His-tagged KRAS G12D protein (Amgen) was diluted to 20 nM in Assay Buffer (20 mM HEPES, pH 7.4, 10 mM MgCl2, 50 mM NaCl, 0.1% BSA, 0.01% Tween-20, 10 μM GDP) and 2 μL was added to the appropriate wells of the 384-well plate. The plate was incubated for 30 minutes at rt. Biotinylated KRPep-2d substrate (Amgen) was diluted to […] in Assay Buffer and 2 AL was added to all wells and incubated for 1 hour at room temperature. Detection Reagent (0.4 nM LANCE Eu-W1024 Anti-6×His (Perkin Elmer AD0401), 5 nM streptavidin-d2 (Cisbio 610SADLA)) was prepared in Assay Buffer, then 4 AL was added to the plate and incubated for 1 h at rt. Plates were read using PerkinElmer En Vision (ex: 320 nm, em1: 665 nm, em2: 615 nm) and em1/em2 data was used to generate curve fits using a 4-parameter logistic model to calculate IC50 values.

[2] = target: GDP-bound KRAS protein (aa 1-169), G12D and C118A; SOS-mediated nucleotide exchange (Homo sapiens (Human), UniProt P01116, C118A/G12D); assay: KRAS G12D Coupled Nucleotide Exchange Assay; format: biochemical; conditions: 2 h compound pre-incubation, GTP, cRAF AlphaScreen
Experimental: Purified GDP-bound KRAS protein (aa 1-169), containing both G12D and C118A amino acid substitutions and an N-terminal His-tag, was pre-incubated in assay buffer (25 mM HEPES pH 7.4, 10 mM MgCl2, and 0.01% Triton X-100) with a compound dose-response titration for 2 h. Following compound pre-incubation, purified SOS protein (aa 564-1049) and GTP (Roche 10106399001) were added to the assay wells and incubated for an additional 30 min. […] The assay plates were then read on a PerkinElmer En Vision Multilabel Reader, using AlphaScreen® technology, and data were analyzed using a 4-parameter logistic model to calculate IC50 values.

[3] = system: Phosphorylation of ERK1/2 in AsPC-1 cells; assay: Phospho-ERK1/2 MSD Assay; format: cell-based; conditions: Homo sapiens, ASPC1, 2 h, read-out: 2 h p-ERK (AsPC-1 cells), IC50 (μM), AsPC-1 cells, 2 h compound treatment
Experimental: AsPC-1 (ATCC® CRL-1682TM) cells were cultured in RPMI 1640 Medium (ThermoFisher Scientific 11875093) containing 10% fetal bovine serum (ThermoFisher Scientific 16000044) and 1× penicillin-streptomycin-glutamine (ThermoFisher Scientific 10378016). Sixteen hours prior to compound treatment, AsPC-1 cells were seeded in 96-well cell culture plates at a density of 25,000 cells/well and incubated at 37° C., 5% CO2. A compound dose-response titration was diluted in growth media, added to appropriate wells of a cell culture plate, and then incubated at 37° C., 5% CO2 for 2 hours. Following compound treatment, cells were washed with ice-cold Dulbecco's phosphate-buffered saline, no Ca^2+ or Mg^2+ (ThermoFisher Scientific 14190144), and then lysed in RIPA buffer (50 mM Tris-HCl pH 7.5, 1% Igepal, 0.5% sodium deoxycholate, 150 mM NaCl, and 0.5% sodium dodecyl sulfate) containing protease inhibitors (Roche 4693132001) and phosphatase inhibitors (Roche 4906837001). Phosphorylation of ERK1/2 in compound-treated lysates was assayed using Phospho-ERK1/2 Whole Cell Lysate kits (Meso Scale Discovery K151DWD) according to the manufacturer's protocol. Assay plates were read on a Meso Scale Discovery Sector Imager 6000, and data were analyzed using a 4-parameter logistic model to calculate IC50 values.

GDP-bound KRAS protein (aa 1-169), G12D and C118A; SOS-mediated nucleotide exchange, sequence (P01116 other isoform, or with tags, fused parts or gaps G12D/C118A): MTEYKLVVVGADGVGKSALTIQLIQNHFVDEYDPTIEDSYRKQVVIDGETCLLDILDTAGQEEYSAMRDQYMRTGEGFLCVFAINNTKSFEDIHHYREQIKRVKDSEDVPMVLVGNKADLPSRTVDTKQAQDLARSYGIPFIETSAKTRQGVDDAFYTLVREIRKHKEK
His-tagged KRAS G12D protein, sequence (P01116-2 other isoform, or with tags, fused parts or gaps G12D): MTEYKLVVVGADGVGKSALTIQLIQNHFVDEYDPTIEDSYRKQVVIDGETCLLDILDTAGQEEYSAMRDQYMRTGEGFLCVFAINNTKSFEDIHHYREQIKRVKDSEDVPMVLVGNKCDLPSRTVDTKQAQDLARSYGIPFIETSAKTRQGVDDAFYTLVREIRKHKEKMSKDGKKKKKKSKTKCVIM

IC50 [1] [nM]	IC50 [2] [nM]	IC50 [3] [µM]	SMILES
34	46	–	N#Cc1c(N)sc2c(F)ccc(-c3c(Cl)cc4c(N5CCCC6(CCOC6)C5)nc(OC[C@@]56CCCN5C[C@H](F)C6)nc4c3F)c12 (stereo partly drawn) [Example 2, 2-Amino-4-(6-chloro-8-fluoro-2-(((2R,7aS)-2-fluorotetrahydro-1H-pyrolizin-7a(5H)-yl)methoxy)-4-(2-oxa-7-azaspiro[4.5]decan-7-yl)quinazolin-7-yl)-7-fluorobenzo[b] thiophene-3-carbonitrile]
–	–	0.768	N#Cc1c(N)sc2c(F)ccc(-c3c(Cl)cc4c(N5CCCC6(CNC(=O)O6)C5)nc(OC[C@@]56CCCN5C[C@H](F)C6)nc4c3F)c12 (stereo partly drawn) [Example 17, 2-Amino-4-(6-chloro-8-fluoro-2-(((2R,7aS)-2-fluorotetrahydro-1H-pyrrolizin-7a(5H)-yl)methoxy)-4-(2-oxo-1-oxa-3,7-diazaspiro[4.5]decan-7-yl)quinazolin-7-yl)-7-fluorobenzo[b] thiophene-3-carbonitrile]
–	–	0.105	N#Cc1c(N)sc2c(F)ccc(-c3c(Cl)cc4c(N5CCCC(C#N)CC5)nc(OC[C@@]56CCCN5C[C@H](F)C6)nc4c3F)c12 (stereo partly drawn) [Example 3, 1-(7-(2-Amino-3-cyano-7-fluorobenzo[b]thiophen-4-yl)-6-chloro-8-fluoro-2-(((2R,7a.S)-2-fluorotetrahydro-1H-pyrrolizin-7a(5H)-yl)methoxy)quina-zolin-4-yl)azepane-4-carbonitrile]
–	–	0.264	N#Cc1c(N)sc2c(F)ccc(-c3c(Cl)cc4c(N5CC6CC(O)C(C6)C5)nc(OC[C@@]56CCCN5C[C@H](F)C6)nc4c3F)c12 (mixture of isomers) [Example 7, 2-Amino-4-(6-chloro-8-fluoro-2-(((2R,7aS)-2-fluorotetrahydro-1H-pyrrolizin-7a(5H)-yl)methoxy)-4-(rac-(1R,5R,6R)-6-hydroxy-3-azabicyclo[3.2.1]octan-3-yl)quinazolin-7-yl)-7-fluorobenzo[6] thiophene-3-carbonitrile]
60	41	–	N#Cc1c(N)sc2c(F)ccc(-c3c(Cl)cc4c(N5CCC6(CCCS6(=O)=O)C5)nc(OC[C@@]56CCCN5C[C@H](F)C6)nc4c3F)c12 (stereo partly drawn) [Example 9, 2-Amino-4-(6-chloro-4-(1,1-dioxido-1-thia-7-azaspiro[4.4]nonan-7-yl)-8-fluoro-2-(((2R,7aS)-2-fluorotetrahydro-1H-pyrrolizin-7a(5H)-yl)methoxy)quinazolin-7-yl)-7-fluorobenzo[b] thiophene-3-carbonitrile]
44	42	–	CC1(O)COCCN(c2nc(OC[C@@]34CCCN3C[C@H](F)C4)nc3c(F)c(-c4ccc(F)c5sc(N)c(C#N)c45)c(Cl)cc23)C1 (single isomer, unassigned) [Example 23]
–	–	0.081	N#Cc1c(N)sc2c(F)ccc(-c3c(Cl)cc4c(N5CCC=CC(O)C5)nc(OC[C@@]56CCCN5C[C@H](F)C6)nc4c3F)c12 (stereo partly drawn) [Example 29, 2-Amino-4-(6-chloro-8-fluoro-2-(((2R,7aS)-2-fluorotetrahydro-1H-pyrrolizin-7a(5H)-yl)methoxy)-4-(3-hydroxy-2,3,6,7-tetrahydro-1H-azepin-1-yl)quinazolin-7-yl)-7-fluorobenzo[b] thiophene-3-carbonitrile]
139	71	–	N#Cc1c(N)sc2c(F)ccc(-c3c(Cl)cc4c(N5CCCC[C@H](C#N)C5)nc(OC[C@@]56CCCN5C[C@H](F)C6)nc4c3F)c12 [Example 69, (3S)-1-(7-(2-amino-3-cyano-7-fluorobenzo[b]thiophen-4-yl)-6-chloro-8-fluoro-2-(((2R,7aS)-2-fluorotetrahydro-1H-pyrrolizin-7a(5H)-yl)methoxy)quinazolin-4-yl)azepane-3-carbonitrile]
61	34	–	CC(C)(O)COc1nc(N2CCOC[C@@](C)(O)C2)c2cc(Cl)c(-c3ccc(F)c4sc(N)c(C#N)c34)c(F)c2n1 (single isomer, unassigned) [Example 67]
144	91	–	N#Cc1c(N)sc2c(F)ccc(-c3c(Cl)cc4c(N5CCCC[C@@H](C#N)C5)nc(OC[C@@]56CCCN5C[C@H](F)C6)nc4c3F)c12 [Example 68, (3R)-1-(7-(2-amino-3-cyano-7-fluorobenzo[b]thiophen-4-yl)-6-chloro-8-fluoro-2-(((2R,7aS)-2-fluorotetrahydro-1H-pyrrolizin-7a(5H)-yl)methoxy)quinazolin-4-yl)azepane-3-carbonitrile]
–	–	0.143	N#Cc1c(N)sc2c(F)ccc(-c3c(Cl)cc4c(N5CCOCC(=O)C5)nc(OC[C@@]56CCCN5C[C@H](F)C6)nc4c3F)c12 [Example 6, 2-Amino-4-(6-chloro-8-fluoro-2-(((2R,7aS)-2-fluorotetrahydro-1H-pyrrolizin-7a(5H)-yl)methoxy)-4-(6-oxo-1,4-oxazepan-4-yl)quinazolin-7-yl)-7-fluorobenzo[b] thiophene-3-carbonitrile]
44	36	–	N#Cc1c(N)sc2c(F)ccc(-c3c(Cl)cc4c(N5CCCC6(CCS6(=O)=O)C5)nc(OC[C@@]56CCCN5C[C@H](F)C6)nc4c3F)c12 (stereo partly drawn) [Example 10, 2-Amino-4-(6-chloro-4-(1,1-dioxido-1-thia-6-azaspiro[3.5]nonan-6-yl)-8-fluoro-2-(((2R,7aS)-2-fluorotetrahydro-1H-pyrrolizin-7a(5H)-yl)methoxy)quinazolin-7-yl)-7-fluorobenzo[b] thiophone-3-carbonitrile]
–	–	0.015	N#Cc1c(N)sc2c(F)ccc(-c3c(Cl)cc4c(N5CCCCC(=O)C5)nc(OC[C@@]56CCCN5C[C@H](F)C6)nc4c3F)c12 [Example 8, 2-Amino-4-(6-chloro-8-fluoro-2-(((2R,7aS)-2-fluorotetrahydro-1H-pyrrolizin-7a(5H)-yl)methoxy)-4-(3-oxoazepan-1-yl)quinazolin-7-yl)-7-fluorobenzo[b] thiophene-3-carbonitrile]
164	94	–	N#Cc1c(N)sc2c(F)ccc(-c3c(Cl)cc4c(N5CCCOCCC5)nc(OC[C@@]56CCCN5C[C@H](F)C6)nc4c3F)c12 (single isomer, unassigned) [Example 19]
–	–	0.041	N#Cc1c(N)sc2c(F)ccc(-c3c(Cl)cc4c(N5CCCC[C@@H](O)C5)nc(OC[C@@]56CCCN5C[C@H](F)C6)nc4c3F)c12 [Example 4, 2-Amino-4-(6-chloro-8-fluoro-2-(((2R,7aS)-2-fluorotetrahydro-1H-pyrrolizin-7a(5H)-yl)methoxy)-4-((R)-3-hydroxyazepan-1-yl)quinazolin-7-yl)-7-fluorobenzo[b] thiophene-3-carbonitrile]
–	–	0.052	N#Cc1c(N)sc2c(F)ccc(-c3c(Cl)cc4c(N5CCCCCC5)nc(OC[C@@]56CCCN5C[C@H](F)C6)nc4c3F)c12 [Example 1, 2-Amino-4-(4-(azepan-1-yl)-6-chloro-8-fluoro-2-(((2R,7aS)-2-fluorotetrahydro-1H-pyrrolizin-7a(5H)-yl)methoxy)quinazolin-7-yl)-7-fluorobenzo[b]thiophene-3-carbonitrile]
17	30	–	C[C@@]1(O)CCCN(c2nc(OC[C@@]34CCCN3C[C@H](F)C4)nc3c(F)c(-c4ccc(F)c5sc(N)c(C#N)c45)ncc23)C1 [Example 56, 2-Amino-7-fluoro-4-(8-fluoro-2-(((2R,7aS)-2-fluorotetrahydro-1H-pyrrolizin-7a(5H)-yl)methoxy)-4-((R)-3-hydroxy-3-methylpiperidin-1-yl)pyrido[4,3-d]pyrimidin-7-yl)benzo[b] thiophene-3-carbonitrile]
